Reference: PubChem BioAssay (NCI)
“And” between values parts separate entries of the source, which are not always exact repeats. Equal entries are not always repeated.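 Interpolation was linear, between the two tested concentrations surrounding the appropriate level; five concentrations were tested over 48 hours in 96-well plates. GI50 = concentration required for 50% inhibition of growth. TGI: concentration producing complete growth inhibition.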

Tests used:
Experiment in all cases: NCI anticancer screen, dose series, 48 h
[1] = tested on: HT29 colon
[2] = tested on: RPMI-8226 leukemia
[3] = tested on: 786-0 renal
[4] = tested on: SK-MEL-28 melanoma
[5] = tested on: SK-OV-3 ovarian
[6] = tested on: M14 melanoma
[7] = tested on: MDA-MB-435
[8] = tested on: RXF 393 renal
[9] = tested on: NCI-H226 lung
[10] = tested on: LOX IMVI melanoma

Cc1[nH]nc2c1N=C(c1ccccc1F)c1cc(C(N)=O)ccc1N2
GI50 [1]: 4.92 µM
TGI [1]: > 25 µM
GI50 [2]: > 25 µM
TGI [2]: > 25 µM
GI50 [3]: 2.82 µM
TGI [3]: > 25 µM
GI50 [4]: 5.79 µM
TGI [4]: > 24.1 µM
GI50 [5]: 6.43 µM
TGI [5]: > 25 µM
GI50 [6]: 7.86 µM
TGI [6]: > 25 µM
GI50 [7]: 7.35 µM
TGI [7]: > 25 µM
GI50 [8]: 0.975 µM
TGI [8]: 6.15 µM
GI50 [9]: 0.852 µM
TGI [9]: 6.38 µM
GI50 [10]: 2.04 µM
TGI [10]: 13.2 µM

CC(C)CC(Nc1c(O)ccc2ccccc12)C(=O)O (stereo unspecified)
TGI [1]: > 100 µM
TGI [2]: > 100 µM
TGI [3]: > 100 µM
TGI [4]: > 100 µM
TGI [5]: 66.3 µM
TGI [6]: > 100 µM
TGI [7]: 45.6 µM
TGI [8]: 35.8 µM
TGI [9]: 62.1 µM
TGI [10]: > 100 µM

Cc1cc(C(=O)NC(CCC(=O)O)C(=O)O)sc1CCC1CNc2nc(N)[nH]c(=O)c2C1 (stereo unspecified)
GI50 [1]: < 0.0198 µM and 0.0322 µM
TGI [1]: > 100 µM
GI50 [2]: 0.15 µM and 0.229 µM
TGI [2]: > 100 µM
GI50 [3]: < 0.01 µM
TGI [3]: > 100 µM
GI50 [4]: 0.0435 µM and 0.0643 µM
TGI [4]: > 100 µM
GI50 [5]: 0.0103 µM and 0.0181 µM
TGI [5]: > 100 µM
GI50 [6]: < 0.0192 µM and 0.0501 µM
TGI [6]: > 100 µM
GI50 [7]: 0.0354 µM and 0.0542 µM
TGI [7]: > 100 µM
GI50 [8]: 0.015 µM and < 0.0158 µM
TGI [8]: > 100 µM
GI50 [9]: < 0.0128 µM
TGI [9]: > 100 µM
GI50 [10]: 0.0294 µM and 0.0365 µM
TGI [10]: > 100 µM

O=S1(=O)CS(=O)(=O)OCCO1
TGI [1]: 347 µM
TGI [2]: 599 µM
GI50 [3]: 35.6 µM
TGI [3]: 159 µM
GI50 [4]: > 93.9 µM
TGI [4]: 300 µM
TGI [5]: 70.5 µM
GI50 [6]: > 78.5 µM
TGI [6]: 162 µM
GI50 [7]: 72.9 µM
TGI [7]: 94.4 µM
GI50 [8]: > 94.8 µM
TGI [8]: 118 µM
GI50 [9]: > 93.7 µM
TGI [9]: 172 µM
GI50 [10]: 29.7 µM
TGI [10]: 71.3 µM

CCCCNC(=O)Oc1ccc(/C(=C(/C)Cc2ccc(OC)cc2)c2ccc(OCCN3CCCC3)cc2)cc1
GI50 [1]: 1.89 µM
TGI [1]: 3.85 µM
GI50 [2]: 2.2 µM
TGI [2]: 4.85 µM
GI50 [3]: 1.51 µM
TGI [3]: 2.91 µM
GI50 [4]: 1.83 µM
TGI [4]: 3.57 µM
GI50 [5]: 6.14 µM
TGI [5]: 20.4 µM
GI50 [6]: 1.81 µM
TGI [6]: 3.48 µM
GI50 [7]: 1.63 µM
TGI [7]: 3.1 µM
GI50 [8]: 2.07 µM
TGI [8]: 3.79 µM
GI50 [9]: 3.03 µM
TGI [9]: 11.4 µM
GI50 [10]: 1.67 µM
TGI [10]: 3.2 µM

CCCCCCCCCCCCCCCC(=O)OCC1OC(OC)C2NP(=O)(N(CCCl)CCCl)OC1C2O (stereo unspecified)
TGI [1]: > 66.8 µM
TGI [2]: 15.9 µM
TGI [3]: 3.85 µM
TGI [4]: 61.1 µM
TGI [5]: 56.1 µM
TGI [6]: 18.1 µM
TGI [7]: 21.7 µM
TGI [8]: 3.99 µM
TGI [9]: 32.2 µM
TGI [10]: 6.58 µM

CN1CCN(Cc2ccc(NC(=O)c3cncc(C#Cc4cncc5nccnc45)c3)cc2C(F)(F)F)CC1
GI50 [1]: 0.914 µM
TGI [1]: 7.87 µM
GI50 [2]: 1.86 µM
TGI [2]: 10.6 µM
GI50 [3]: 5.31 µM
TGI [3]: 12.5 µM
GI50 [4]: 1.66 µM
TGI [4]: 5.97 µM
GI50 [5]: 2.75 µM
TGI [5]: 13 µM
GI50 [6]: 0.83 µM
TGI [6]: 4.33 µM
GI50 [7]: 1.34 µM
TGI [7]: 7.3 µM
GI50 [8]: 2.21 µM
TGI [8]: 7.47 µM
GI50 [9]: 0.628 µM
TGI [9]: > 50 µM
GI50 [10]: 0.695 µM
TGI [10]: 5.48 µM

COc1ccc2c(Cl)cc(NC(=O)Nc3c(C)cccc3C)nc2c1
GI50 [1]: 33.9 µM
TGI [1]: > 100 µM
GI50 [2]: > 100 µM
TGI [2]: > 100 µM
GI50 [3]: 7.92 µM
TGI [3]: > 100 µM
GI50 [4]: 31 µM
TGI [4]: > 100 µM
GI50 [5]: 4.37 µM
TGI [5]: 83 µM
GI50 [6]: 31.8 µM
TGI [6]: > 100 µM
GI50 [7]: 13.4 µM
TGI [7]: 40.5 µM
GI50 [8]: 4.97 µM
TGI [8]: 24.8 µM
GI50 [9]: 2.29 µM
TGI [9]: 6.14 µM
GI50 [10]: 17.3 µM
TGI [10]: > 100 µM

COC(=O)C(CBr)CBr
TGI [1]: 11 µM
TGI [2]: 3.97 µM
TGI [3]: 8.91 µM
TGI [4]: 9.36 µM
TGI [5]: 33.8 µM
TGI [6]: 4.72 µM
TGI [7]: 10.1 µM
TGI [8]: 4.86 µM
TGI [9]: 28.1 µM
TGI [10]: 7.75 µM

CC1(C)C(=O)/C=C\C(=O)C(C)(C)C(=O)/C=C\C(=O)C(C)(C)C(=O)/C=C\C(=O)C(C)(C)C(=O)/C=C\C1=O
TGI [1]: 37.3 µM
TGI [2]: 24.2 µM
TGI [3]: 49.1 µM
TGI [4]: > 58 µM
TGI [5]: > 96.1 µM
TGI [6]: 48.8 µM
TGI [7]: > 100 µM
TGI [8]: 34.1 µM
TGI [9]: > 86.5 µM
TGI [10]: > 53.8 µM

C/C(=N\NC(=S)N1CC2CCC(CC2)C1)c1cccc(C)n1
GI50 [1]: < 0.0001 µM
TGI [1]: 11.4 µM
GI50 [2]: 0.16 µM
TGI [2]: 17.1 µM
TGI [3]: 11.7 µM
TGI [4]: 17.7 µM
TGI [5]: 7.47 µM
GI50 [6]: 0.477 µM
TGI [6]: 5.55 µM
TGI [7]: 19.6 µM
TGI [8]: 14.8 µM
TGI [9]: 7.73 µM
GI50 [10]: 0.179 µM
TGI [10]: 8.16 µM

COC(=O)/C=C1/SC(N2N=C(c3cccs3)CC2c2ccc(F)cc2)=NC1=O (stereo unspecified)
GI50 [1]: 2.28 µM
TGI [1]: 4.54 µM
GI50 [2]: 2.08 µM
TGI [2]: 5.36 µM
GI50 [3]: 3.12 µM
TGI [3]: 8.61 µM
GI50 [4]: 2.61 µM
TGI [4]: 6 µM
GI50 [5]: 9.78 µM
TGI [5]: 53.9 µM
GI50 [6]: 2.25 µM
TGI [6]: 5.17 µM
GI50 [7]: 2.13 µM
TGI [7]: 4.8 µM
GI50 [8]: 1.73 µM
TGI [8]: 3.26 µM
GI50 [9]: 2.24 µM
TGI [9]: 6.32 µM
GI50 [10]: 1.61 µM
TGI [10]: 3.06 µM

c1cncc(C2Nc3cccc4cccc(c34)N2)c1
GI50 [1]: 31.8 µM
TGI [1]: > 100 µM
GI50 [2]: 33.9 µM
TGI [2]: > 100 µM
GI50 [3]: > 100 µM
TGI [3]: > 100 µM
GI50 [4]: 64 µM
TGI [4]: > 100 µM
GI50 [5]: > 100 µM
TGI [5]: > 100 µM
GI50 [6]: 46 µM
TGI [6]: > 100 µM
GI50 [7]: 35.7 µM
TGI [7]: > 100 µM
GI50 [8]: 16.8 µM
TGI [8]: 33 µM
GI50 [9]: 80.5 µM
TGI [9]: > 100 µM
GI50 [10]: 21.7 µM
TGI [10]: 57.6 µM

NC(N)=Nc1nc2ccc([N+](=O)[O-])cc2[nH]1
TGI [1]: > 100 µM
TGI [2]: > 100 µM
TGI [3]: > 100 µM
TGI [4]: > 100 µM
TGI [5]: > 100 µM
TGI [6]: > 100 µM
TGI [7]: > 100 µM
TGI [8]: > 100 µM
TGI [9]: > 100 µM
TGI [10]: > 100 µM

N#Cc1c(N)nc(N)nc1N[C@H](c1nc2c(F)ccc(Cl)c2c(=O)n1-c1cccnc1)C1CC1
GI50 [1]: 4.53 µM
TGI [1]: 25.8 µM
GI50 [2]: 19 µM
TGI [2]: 46.4 µM
GI50 [3]: 0.363 µM
TGI [3]: 14.5 µM
GI50 [4]: 7.23 µM
TGI [4]: > 100 µM
GI50 [5]: 2.41 µM
TGI [5]: 11.4 µM
GI50 [6]: 13.6 µM
TGI [6]: 41.8 µM
GI50 [7]: 13 µM
TGI [7]: 34.4 µM
GI50 [8]: 0.32 µM
TGI [8]: 3.46 µM
GI50 [9]: 15.5 µM
TGI [9]: > 100 µM
GI50 [10]: 5.51 µM
TGI [10]: 20.1 µM
